Assay results as given in patent US20240327334A1, “Covalent Inhibitors As Antiviral Agents” (Enanta Pharmaceuticals, Inc., priority 2022, published 2024).

What was measured:
[1] = system: SARS-CoV-2 replicon; assay: microbe, parasite or virus in culture; type: cell-based; conditions: Severe acute respiratory syndrome coronavirus 2, Huh-7
[2] = target: SARS-CoV-2 Papain-like (PLpro) protease (Severe acute respiratory syndrome coronavirus 2, UniProt P0DTD1); assay: SARS-CoV-2 Papain-like (PLpro) protease biochemical enzyme inhibition assay (ubiquitin-fluorophore substrate, Ub-R110); conditions: Ub-R110 substrate; run in duplicate; read-out: PLpro IC50

SMILES | EC50 [1] | IC50 [2]
O=C(NC/C=C/C(=O)N1CCCC1)C(=O)NCc1ccccc1C(=O)NC1(c2cccc3ccccc23)CC1 [Example 557] | 1000 to 10000 nM | < 100 nM
N#CN1CC[C@H](C(=O)NCc2ccccc2C(=O)NC2(c3cc(-c4cnn(C5CC5)c4)cc4ncccc34)CC2)C1 [Example 419] | < 1000 nM | < 100 nM
C[C@@H](C#Cc1nccs1)NC(=O)C(=O)NCc1ccccc1C(=O)NC1(c2ccc3ccccc3c2)CC1 [Example 183] | < 1000 nM | < 100 nM
C[C@@H](NC(=O)c1ccccc1CNC(=O)C(=O)NCC#Cc1nccs1)c1cc(F)cc(-c2cnn(C(F)F)c2)c1 [Example 492] | < 1000 nM | < 100 nM
Cc1n[nH]cc1-c1cc(C2(NC(=O)c3ccccc3CNC(=O)C(=O)NCC#N)CC2)c2ccccc2c1 [Example 284] | < 1000 nM | < 100 nM
N#CCNC(=O)C(=O)NCc1ccccc1C(=O)NC1(c2cc(-c3ccn(C(F)F)n3)cc3ccccc23)CC1 [Example 293] | < 1000 nM | < 100 nM
C[C@@H](C#Cc1ncccc1Cl)NC(=O)C(=O)NCc1ccccc1C(=O)NC1(c2cc(F)cc(-c3cnn(C4CC4)c3)c2)CC1 [Example 264] | < 1000 nM | < 100 nM
N#CCNC(=O)C(=O)NCc1ccc(C#N)cc1C(=O)NC1(c2ccc(F)c3ccccc23)CC1 [Example 55] | 1000 to 10000 nM | < 100 nM
N#CCNC(=O)C(=O)NCc1ccccc1C(=O)NC1(c2cc(Cl)cc(-c3cnco3)c2)CC1 [Example 451] | 1000 to 10000 nM | < 100 nM
C#CCNC(=O)C(=O)NCc1ccccc1C(=O)NC1(c2ccc(F)c(-c3cccs3)c2)CC1 [Example 223] | < 1000 nM | < 100 nM
O=C(NCC#Cc1nc2ccccc2s1)C(=O)NCc1ccccc1C(=O)NC1(c2ccc3ccccc3c2)CC1 [Example 177] | 1000 to 10000 nM | 100 to 1000 nM
C[C@@H](C#Cc1ncccc1OCC(F)F)NC(=O)C(=O)NCc1ccccc1C(=O)NC1(c2ccc3nn(C)cc3c2)CC1 [Example 212] | 1000 to 10000 nM | 100 to 1000 nM
O=C(NC/C=C1\CCOC1=O)C(=O)NCc1ccccc1C(=O)NC1(c2cccc3ccccc23)CC1 [Example 153] | < 1000 nM | < 100 nM
Cn1ccnc1C#CCNC(=O)C(=O)NCc1ccccc1C(=O)NC1(c2ccc3ccccc3c2)CC1 [Example 197] | < 1000 nM | < 100 nM
C[C@@H](C#Cc1nccs1)NC(=O)C(=O)NCc1ccccc1C(=O)NC1(c2ccc3nn(C)cc3c2)CC1 [Example 184] | < 1000 nM | < 100 nM
Cc1cccnc1C#C[C@H](C)NC(=O)C(=O)NCc1ccccc1C(=O)NC1(c2ccc3nn(C)cc3c2)CC1 [Example 274] | < 1000 nM | < 100 nM
C#CCNC(=O)C(=O)NCc1ccccc1C(=O)NC1(c2cc(Cl)cc(-c3c(C)nn(C4CC4)c3C)c2)CC1 [Example 131] | < 1000 nM | < 100 nM
C[C@@H](NC(=O)c1ccccc1CNC(=O)C(=O)NCC#N)c1cc(-c2cccs2)cc(C(F)(F)F)c1 [Example 460] | < 1000 nM | < 100 nM
CC(C)(O)c1ncc(-c2cc(C3(NC(=O)c4ccccc4CNC(=O)C(=O)NCC#N)CC3)c3ccccc3c2)s1 [Example 287] | < 1000 nM | < 100 nM
Cn1cc(-c2cc(C3(NC(=O)c4ccccc4CNC(=O)C(=O)NCC#N)CC3)ccc2F)cn1 [Example 231] | > 10000 nM | < 100 nM
Cn1cc2cc(C3(NC(=O)c4ccccc4CNC(=O)C(=O)NCC#Cc4ncccc4Cl)CC3)ccc2n1 [Example 269] | < 1000 nM | < 100 nM
N#CCNC(=O)C(=O)NCc1ccccc1C(=O)NC1(c2ccc(F)c(Br)c2)CC1 [Example 217] | > 10000 nM | 100 to 1000 nM
CS(=O)(=O)/C=C/CNC(=O)C(=O)NCc1ccccc1C(=O)NC1(c2cccc3ccccc23)CC1 [Example 155] | < 1000 nM | < 100 nM
COc1cccnc1C#C[C@H](C)NC(=O)C(=O)NCc1ccccc1C(=O)NC1(c2cc(F)cc(-c3cnn(C4CC4)c3)c2)CC1 [Example 265] | < 1000 nM | < 100 nM
C[C@@H](C#Cc1nccs1)NC(=O)C(=O)NCc1ccccc1C(=O)NC1(c2cc(Cl)cc(-c3ncco3)c2)CC1 [Example 493] | < 1000 nM | < 100 nM

SMILES | EC50 [1] | IC50 [2]
O=C(NCC#Cc1ncccc1OC(F)(F)F)C(=O)NCc1ccccc1C(=O)NC1(c2ccc3ccccc3c2)CC1 [Example 201] | < 1000 nM | < 100 nM
C#CCNC(=O)C(=O)NCc1ccccc1C(=O)NC1(c2cc(-c3cccs3)cc(Cl)c2F)CC1 [Example 303] | < 1000 nM | < 100 nM
N#CCNC(=O)C(=O)NCc1ccccc1C(=O)NC1(c2cc(-c3ccc(CO)s3)cc3ccccc23)CC1 [Example 350] | < 1000 nM | < 100 nM
O=C(NCC#Cc1nccs1)C(=O)NCc1ccccc1C(=O)NC1(c2cc(Cl)cc(-c3cc4ccccc4s3)c2)CC1 [Example 443] | < 1000 nM | < 100 nM
CON(C)C(=O)C#CCNC(=O)C(=O)NCc1ccccc1C(=O)NC1(c2cccc3ccccc23)CC1 [Example 524] | < 1000 nM | < 100 nM
C[C@@H](C#Cc1ncccc1Cl)NC(=O)C(=O)NCc1ccccc1C(=O)NC1(c2ccc3nn(C)cc3c2)CC1 [Example 272] | < 1000 nM | < 100 nM
COC(=O)Cn1cc(-c2cc(C3(NC(=O)c4ccccc4CNC(=O)C(=O)NCC#N)CC3)c3ccccc3c2)nn1 [Example 426] | 1000 to 10000 nM | < 100 nM
CN1CCC(n2cc(-c3cc(F)cc(C4(NC(=O)c5ccccc5CNC(=O)C(=O)NCC#Cc5nccs5)CC4)c3)cn2)CC1 [Example 255] | < 1000 nM | < 100 nM
C#CCNC(=O)C(=O)NCc1ccccc1C(=O)NC1(c2cccc3nn(C)cc23)CC1 [Example 342] | < 1000 nM | < 100 nM
C[C@@H](C#Cc1nccs1)NC(=O)C(=O)NCc1ccccc1C(=O)NC1(c2ccnc3c2ccn3C2CC2)CC1 [Example 402] | < 1000 nM | < 100 nM
COc1ccc(C2(NC(=O)c3ccccc3CNC(=O)C(=O)NCC#Cc3nccs3)CC2)cc1-c1cnn(C2CC2)c1 [Example 247] | < 1000 nM | < 100 nM
COc1nccnc1C#CCNC(=O)C(=O)NCc1ccccc1C(=O)NC1(c2ccc3ccccc3c2)CC1 [Example 195] | < 1000 nM | < 100 nM
O=C(NCC#Cc1nccs1)C(=O)NCc1ccccc1C(=O)NC1(c2cc(Cl)cc(-c3ccccc3F)c2)CC1 [Example 442] | < 1000 nM | < 100 nM
O=C(NCC#Cc1cscn1)C(=O)NCc1ccccc1C(=O)NC1(c2ccc3ccccc3c2)CC1 [Example 165] | 1000 to 10000 nM | < 100 nM
CC(C)[C@@H](C#Cc1nccs1)NC(=O)C(=O)NCc1ccccc1C(=O)NC1(c2ccc3nn(C)cc3c2)CC1 [Example 97] | < 1000 nM | 100 to 1000 nM
Cc1nn(C)cc1-c1cc(F)cc(C2(NC(=O)c3ccccc3CNC(=O)C(=O)NCC#N)CC2)c1 [Example 233] | > 10000 nM | < 100 nM
C#C[C@H](C)NC(=O)C(=O)NCc1ccccc1C(=O)NC1(c2cccc3ccccc23)CC1 [Example 156] | < 1000 nM | < 100 nM
O=C(NCC#Cc1nccs1)C(=O)NCc1ccccc1C(=O)NC1(c2cc(F)cc(-n3cc(C4CC4)cn3)c2)CC1 [Example 489] | < 1000 nM | < 100 nM
COc1cc(C2(NC(=O)c3ccccc3CNC(=O)C(=O)N[C@@H](C)C#Cc3ccc(S(C)(=O)=O)cc3F)CC2)cc2cn(C3CC3)nc12 [Example 149] | < 1000 nM | < 100 nM
Cc1nn(C)cc1-c1cc(F)cc(C2(NC(=O)c3ccccc3CNC(=O)C(=O)N[C@@H](C)C#Cc3ncccc3Cl)CC2)c1 [Example 275] | < 1000 nM | < 100 nM
C=C(C)c1ccc(-c2cc(C3(NC(=O)c4ccccc4CNC(=O)[C@H]4CCN(C#N)C4)CC3)c3ccccc3c2)s1 [Example 418] | < 1000 nM | < 100 nM
C#CCNC(=O)C(=O)NCc1ccccc1C(=O)NC1(c2cc(Cl)cc(-c3ccccc3F)c2)CC1 [Example 444] | < 1000 nM | < 100 nM
N#CCNC(=O)C(=O)NCc1ccccc1C(=O)NC1(c2cccc(-c3ccc(F)cc3)c2Cl)CC1 [Example 380] | > 10000 nM | 100 to 1000 nM
Cc1nn(C)c(C)c1-c1cc(F)cc(C2(NC(=O)c3ccccc3CNC(=O)C(=O)NCC#Cc3nccs3)CC2)c1 [Example 490] | < 1000 nM | < 100 nM
N#CCNC(=O)C(=O)NCc1ccccc1C(=O)NC1(c2cc(-c3cccs3)cc3ccccc23)CC1 [Example 347] | < 1000 nM | < 100 nM
